# Patent publication US20230390250A1, “MODULATION OF GLUCAGON-LIKE PEPTIDE 1 AND USES THEREOF” (priority 2020, published 2023)
# Entries after “also recorded” stand apart in the source; their conditions may differ. Read-outs that look alike come from different tables or passages of the source.
# Tests used:
# GLUTag cells = assay: GLP-1 secretion from cultured GLUTag cells treated with LPA and/or LPAR antagonist; type: cell-based, mouse; conditions: for rescue of LPA-inhibited GLP-1 secretion by LPAR antagonist: 10 μM antagonist plus 2.5 μM LPA
# Method: We have grown GLUTag cells in culture to test effects of various LPA species and the LPAR 1/2/3 inhibitor Ki-16425. GLUTag cells are a well characterized L-cell line derived from a mouse intestinal tumour, which have been widely used to study the regulation of GLP-1. Briefly, GLUTag cells were grown until 80-90% confluent. Complete medium, containing fetal bovine serum, was replaced with medium containing charcoal[…] dextran treated serum, which removes lipids and hormones that could interfere with testing. […] This indicates a direct inhibitory effect of LPA at physiologically relevant levels on GLP-1 secretion by L-cells, and the ability of a commercially available LPAR antagonist to prevent this.
# Experimental Protocol. Briefly, GLUTag cells were grown until 70-80% confluent. Complete medium (low glucose DMEM), containing fetal bovine serum, was replaced with medium containing charcoal-dextran treated serum, which removes lipids and hormones that could interfere with testing. Cells were then treated with medium containing either DMSO as vehicle control (0.1% v/v), 2.5 μM LPA, 10 μM LPAR antagonist, or a combination of the LPA species and inhibitors. For cells treated with both LPA plus LPAR inhibitor: cells were pre-treated with LPA for 30 minutes and then 10 uM LPAR inhibitor was added to the respective wells for a further 2 hours. For cells treated with LPA only, or vehicle only, the total treatment time was 2.5 hours. For cells treated with antagonist only, the treatment time was 2 hours.
# GLP-1 [1] = assay: Circulating GLP-1 in mice injected with LPA, with or without LPAR antagonist pre-treatment; type: in vivo; conditions: for rescue of the fall in blood GLP-1 levels caused by LPA: serum at 30 min (Examples 6, 8); for blood GLP-1 with antagonist alone versus vehicles: no LPA; for prevention of LPA-induced decrease in plasma GLP-1: 5 mg/kg i.p. 10 min before 50 mg/kg 1-oleoyl-2-hydroxy-LPA, n=3 (Example 3, FIG. 4)
# Method: We injected mice i.p. with vehicle (10% DMSO in isotonic saline) or 50 mg/kg of 1-oleoyl-2-hydroxy-LPA. Half of the mice injected with LPA were pre-injected with 5 mg/kg Ki-16425 10 minutes prior to receiving LPA. Thirty minutes later, samples of blood were taken by cardiac puncture, and circulating active GLP-1 levels in plasma were analysed by enzyme linked immunosorbent assay.
# (§1) The experimental protocol was as follows: • 1. Mice were administered an LPAR antagonist drug, either by oral gavage (for BMS986020, SARI 00842, AM966, AM095, or H2L51863030), or by i.p. injection (for Ki-16425, and LPA2-antagonistl) at the doses indicated in the table below. • 2. Control mice were administered only the vehicle (a 10% DMSO solution) given via the same route as the comparison drug was administered. • 3. Ten minutes later, mice were injected i.p. either with isotonic saline, or with 50 mg/kg LPA. • 4. Thirty minutes later, mice were euthanized by cervical dyslocation, and blood was collected from the heart for preparation of serum that was stored at −80C until it was analyzed for total GLP-1 concentration by ELISA assay using a GLP-1 enzyme immunoassay kit.
# DPP4 [2] = assay: DPP4 activity in GLUTag cells (fluorometric kit ab204722); type: cell-based, mouse; conditions: for effect of 18:1-LPA combined with LPAR antagonist on DPP4 activity in GLUTag cells: 2.5 uM 18:1-LPA 30 minutes, then 10 uM antagonist 2 hours; for effect of LPAR antagonist alone on DPP4 activity in GLUTag cells: 10 uM antagonist, 2 hours
# Method: Briefly, GLUTag cells were grown to produce the recommended quantity needed for the assay according to the manufacturer's protocol (ab204722 Dipeptidyl peptidase IV Activity Assay Kit (Fluorometric)), and then the wells were treated in media containing charcoal-stripped FBS (10%), with either nothing (no treatment control), or vehicle control (0.05% DMSO), or 2.5 uM 18:1-LPA for 30 minutes, and then the inhibitors (as indicated in the graph of FIG. 17) were added to the vehicle wells and the 2.5 uM 18:1-LPA wells at 10 uM concentrations, as indicated on the graph (FIG. 17), for an additional 2 hours. Cells were then harvested according to the manufacturer's protocol, and lysed using reagents from the kit. Charcoal-stripped FBS was used to remove lipids, including LPA, from serum. Experiments were also carried out wherein the FBS was not stripped with charcoal, and the results were not different.
# According to the manufacturer, dipeptidyl peptidase IV (DPP4) Activity Assay Kit (Fluorometric) (ab204722) is an assay where DPP4 cleaves a substrate to release a quenched fluorescent group, AMC (7-Amino-4-Methyl Coumarin), which can be easily detected at Ex/Em=360/460 nm. This assay is rapid, simple, sensitive, and reliable, as well as, suitable for high throughput activity screening of DPP4. This kit detects DPP4 activity as low as 3 ρU per well.
# LPAR1 [3] = target: T1, LPAR1 (Homo sapiens, UniProt Q92633); conditions: cited from earlier work
# Target sequence in this assay (Q92633 whole entry, species assumed): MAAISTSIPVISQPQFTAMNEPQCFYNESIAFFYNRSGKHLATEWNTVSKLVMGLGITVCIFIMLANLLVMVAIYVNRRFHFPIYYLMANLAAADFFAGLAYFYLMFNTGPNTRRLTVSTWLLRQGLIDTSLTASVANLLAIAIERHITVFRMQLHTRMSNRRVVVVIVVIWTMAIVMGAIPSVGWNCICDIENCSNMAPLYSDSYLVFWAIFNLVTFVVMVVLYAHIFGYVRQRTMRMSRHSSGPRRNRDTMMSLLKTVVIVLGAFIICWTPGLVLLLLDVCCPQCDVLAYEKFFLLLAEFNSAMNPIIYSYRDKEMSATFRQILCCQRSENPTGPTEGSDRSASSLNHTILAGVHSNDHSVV
# LPAR2 = LPAR2 (Homo sapiens, UniProt Q9HBW0); conditions: cited from earlier work
# LPAR3 = target: T2, LPAR3 (Homo sapiens, UniProt Q9UBY5); conditions: cited from earlier work
# T2 sequence (Q9UBY5 1-353): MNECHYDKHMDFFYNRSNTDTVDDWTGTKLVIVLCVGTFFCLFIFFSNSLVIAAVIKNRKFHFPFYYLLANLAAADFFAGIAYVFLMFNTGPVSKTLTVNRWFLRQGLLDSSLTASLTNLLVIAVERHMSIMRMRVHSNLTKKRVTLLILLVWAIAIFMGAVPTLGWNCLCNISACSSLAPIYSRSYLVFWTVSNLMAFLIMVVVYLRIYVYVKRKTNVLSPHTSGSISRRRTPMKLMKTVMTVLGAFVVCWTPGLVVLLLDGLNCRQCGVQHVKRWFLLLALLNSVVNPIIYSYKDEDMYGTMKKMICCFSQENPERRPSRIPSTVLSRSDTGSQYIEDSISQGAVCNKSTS
# LPAR4 = target: T3, LPAR4 (Homo sapiens, UniProt Q99677); conditions: cited from earlier work
# T3 construct: host or cells: CHO cells
# LPAR5 = target: T4, LPAR5 (Homo sapiens, UniProt Q9H1C0); conditions: cited from earlier work
# T4 construct: host or cells: CHO cells
# recombinant mouse LPAR1 = target: T5, recombinant mouse LPAR1 (Mus musculus, UniProt P61793); conditions: CHO cell membranes; read-out: IC50, inhibition of GTP-gamma-s binding, mouse LPAR1; cited from earlier work
# T5 construct: expressed in transfected cells; host or cells: CHO cell membranes
# LPAR1 [4] = target: T1, LPAR1; set-up: expressed in transfected cells; host or cells: CHO cell membranes; conditions: CHO cell membranes; read-out: IC50, inhibition of GTP-gamma-s binding, human LPAR1; cited from earlier work
# Target sequence in this assay (Q92633 whole entry): as the sequence (Q92633 whole entry, species assumed) above
# GLP-1 [5] = assay: Blood GLP-1 in RT-SAKO mice (elevated endogenous LPA) treated with Ki-16425; type: in vivo; conditions: 30 minutes after injection
# Source text: Our laboratory has created a new genetic mouse model to study the isolated effects of obesity on kidney health. This model was not created to test LPA metabolism or to study GLP-1 regulation, but we have made important discoveries on these topics. We have made mice that lack the enzyme adipose triglyceride lipase (ATGL) in renal tubule cells, and have named these mice renal tubule-specific adipose triglyceride lipase knockout (or RT-SAKO) mice. These mice develop fatty kidneys, and as a side effect of changes in kidney cell metabolism, their kidneys make more LPA. As a result, RT-SAKO mice develop elevations in blood lysophosphatidic acid levels by 16-18 weeks of age (FIG. 5, left panel). They also have low circulating levels of GLP-1 (FIG. 5, right panel).
# [6] = Glucose intolerance and insulin secretion in fatty-kidney (RT-SAKO) mice; type: in vivo
# DPP4 [7] = assay: DPP4 activity in serum of C57BI/6J mice; type: in vivo
# Method: Mice were injected with 5 mg/kg Ki16425 or control (10% DMSO in isotonic saline), then injected 10 mins later with 50 mg/kg 1-18:1-LPA or saline (vehicle control), then euthanized 30 minutes later for serum collection and analysis.
# as §1, with “(for” for “(for BMS986020,”, “00842” for “00842, AM966, AM095,”, “AM966),” for “H2L51863030),”, “Ki-16425)” for “Ki-16425, and LPA2-antagonistl)”, “18:1-LPA.” for “LPA.”
# insulin secretion = conditions: prior study, Rancoule et al. 2013, cited from earlier work
# Dpp4 gene expression = Dpp4 gene expression in LPA-treated GLUTag cells (real time PCR); type: cell-based, mouse; conditions: 2.5 uM 20:4-LPA, 2 hours and up to 2 days, normalised to Gapdh
# Chain of LPAR2 (Q9HBW0 whole entry, species assumed): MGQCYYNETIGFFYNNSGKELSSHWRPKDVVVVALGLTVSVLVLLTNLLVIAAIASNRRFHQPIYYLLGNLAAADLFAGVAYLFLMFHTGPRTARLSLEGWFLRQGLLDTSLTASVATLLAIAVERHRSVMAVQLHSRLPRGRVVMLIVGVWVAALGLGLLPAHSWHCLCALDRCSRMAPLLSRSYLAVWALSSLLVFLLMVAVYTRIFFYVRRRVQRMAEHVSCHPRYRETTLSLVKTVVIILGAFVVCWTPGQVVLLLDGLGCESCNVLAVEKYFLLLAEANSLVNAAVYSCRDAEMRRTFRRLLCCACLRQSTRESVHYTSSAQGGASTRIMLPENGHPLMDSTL
# T3 sequence (Q99677 whole entry, species assumed): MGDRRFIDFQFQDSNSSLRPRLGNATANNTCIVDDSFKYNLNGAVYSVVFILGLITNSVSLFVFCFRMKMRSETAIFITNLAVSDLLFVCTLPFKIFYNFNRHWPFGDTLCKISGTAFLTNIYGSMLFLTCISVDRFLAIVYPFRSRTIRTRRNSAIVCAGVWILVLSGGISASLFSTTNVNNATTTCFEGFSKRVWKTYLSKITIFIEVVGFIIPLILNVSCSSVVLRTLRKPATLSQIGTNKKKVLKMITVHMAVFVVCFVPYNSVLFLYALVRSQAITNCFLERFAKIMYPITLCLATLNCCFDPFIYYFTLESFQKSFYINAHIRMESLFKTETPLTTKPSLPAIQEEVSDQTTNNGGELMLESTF
# T5 sequence (P61793 whole entry): as the sequence (Q92633 whole entry, species assumed) above, with I4A, I8S, P22Q, H40Y, I61V, E193D, N194H, I269V, S331N, T335N counted along it
# T4 sequence (Q9H1C0 whole entry, species assumed): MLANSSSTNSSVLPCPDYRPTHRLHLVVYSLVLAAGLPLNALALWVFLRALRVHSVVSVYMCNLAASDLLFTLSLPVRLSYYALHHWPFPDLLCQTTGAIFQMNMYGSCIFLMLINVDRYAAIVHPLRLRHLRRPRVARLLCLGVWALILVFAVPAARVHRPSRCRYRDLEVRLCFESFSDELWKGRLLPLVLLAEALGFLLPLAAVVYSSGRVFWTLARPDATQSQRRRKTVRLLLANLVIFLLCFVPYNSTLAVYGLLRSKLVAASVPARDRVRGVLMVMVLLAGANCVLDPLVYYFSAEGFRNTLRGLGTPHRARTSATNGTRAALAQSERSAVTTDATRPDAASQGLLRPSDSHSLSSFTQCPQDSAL
compound,measurement,setting,value
Cc1noc(-c2ccc(-c3ccc(CC(=O)O)cc3)cc2)c1NC(=O)O[C@H](C)c1ccccc1 [AM095],effect of LPAR antagonist alone on GLP-1 levels,"GLUTag cells; 10 μM antagonist alone, 2 h",no significant effect
same,rescue of LPA-inhibited GLP-1 secretion by LPAR antagonist,GLUTag cells,complete rescue
same,rescue of the fall in blood GLP-1 levels caused by LPA,GLP-1 [1]; antagonist 30 mg/kg by gavage 10 min before 50 mg/kg 18:1-LPA i.p.,completely abrogated; also recorded: Complete rescues
same,blood GLP-1 with antagonist alone versus vehicles,GLP-1 [1]; antagonist 30 mg/kg by gavage,not significantly different from mice treated only with the vehicles
same,effect of 18:1-LPA combined with LPAR antagonist on DPP4 activity in GLUTag cells,DPP4 [2],did not significantly affect
same,effect of LPAR antagonist alone on DPP4 activity in GLUTag cells,DPP4 [2],did not significantly affect
same,IC50,LPAR1 [3]; read-out: IC50 for LPAR1,~25 nM
same,fold greater affinity for LPAR1 than LPAR2-5,LPAR1 [3]; selectivity,> 400 fold
same,IC50,LPAR2,≥ 10000 nM
same,level at which LPAR3 is antagonized,LPAR3,low micromolar levels
same,IC50,LPAR3; read-out: IC50 for LPAR3,≥ 10000 nM
same,IC50,LPAR4,≥ 10000 nM
same,IC50,LPAR5,≥ 10000 nM
same,IC50,recombinant mouse LPAR1,730 nM
same,IC50,LPAR1 [4],980 nM
Cc1noc(-c2ccc(CSCCC(=O)O)cc2)c1NC(=O)OC(C)c1ccccc1Cl (stereo not drawn) [Ki16425],rescue of LPA-inhibited GLP-1 secretion by LPAR antagonist,GLUTag cells,larger effect than the others; also recorded: prevented that decrease
same,rescue of LPA-inhibited GLP-1 secretion by LPAR antagonist,GLUTag cells; listed as Ki-16425,completely prevents this decrease; also recorded: restored
same,prevention of LPA-induced decrease in plasma GLP-1,GLP-1 [1],significantly abrogates
same,prevention of LPA-induced decrease in plasma GLP-1,GLP-1 [1]; listed as Ki-16425,partially restored; also recorded: partially prevented; also recorded: significantly prevented
same,rescue of the fall in blood GLP-1 levels caused by LPA,GLP-1 [1]; antagonist 5 mg/kg i.p. 10 min before 50 mg/kg 18:1-LPA i.p.,completely abrogated; also recorded: Complete rescues; also recorded: restored to normal levels
same,blood GLP-1 with antagonist alone versus vehicles,GLP-1 [1]; antagonist 5 mg/kg i.p.,indistinguishable from mice treated only with the vehicles
same,restoration of blood GLP-1 levels in RT-SAKO mice,GLP-1 [5],restores GLP-1 levels; also recorded: come back up to close to normal
same,glucose intolerance and impaired insulin secretion,[6],rescues
same,effect of 18:1-LPA combined with LPAR antagonist on DPP4 activity in GLUTag cells,DPP4 [2],did not significantly affect
same,effect of LPAR antagonist alone on DPP4 activity in GLUTag cells,DPP4 [2],did not significantly affect
same,effect of antagonist on DPP4 activity in mouse serum,DPP4 [7]; 5 mg/kg i.p.,did not significantly affect; also recorded: lack of effect; also recorded: not significantly affected
same,effect of 18:1-LPA combined with antagonist on DPP4 activity in mouse serum,DPP4 [7]; antagonist 5 mg/kg i.p. then 50 mg/kg 18:1-LPA,did not affect
same,beta-islet cell number,insulin secretion; mice on a high-fat diet,increased
same,prevention of LPA-impaired insulin secretion,insulin secretion,prevented
same,Ki,LPAR1 [3],340 nM
same,Ki,LPAR2,6500 nM
same,Ki,LPAR3,930 nM
same,level at which LPAR3 is antagonized,LPAR3,low micromolar levels
"CCCCC/C=C\C/C=C\C/C=C\C/C=C\CCCC(=O)OCC(O)COP(=O)(O)O (stereo not drawn) [20:4-LPA, 1-arachidonoyl-2-hydroxy-LPA]",fold decrease in GLP-1 secretion / GLP-1 levels in media caused by LPA,GLUTag cells; 2.5 μM LPA species,~5 fold
same,decrease in GLP-1 secretion / level caused by LPA (fraction),"GLUTag cells; 2.5 μM LPA, 2-2.5 h",over 2/3
same,change in Dpp4 gene expression,Dpp4 gene expression,did not significantly change
